Data on 12 compounds can be found in patent EP0925786A1, “REMEDIES FOR ISCHEMIC DISEASES” (MITSUBISHI CHEMICAL CORPORATION, priority 1996, dated 1998).

pIC50: −log10 of the molar value.

One data set has as its target T1, m-Calpain (Rattus norvegicus, UniProt Q07009).
T1 construct: m-Calpain was purified from rat brain; from tissue; host or cells: rat brain
T1 sequence (Q07009 20-700 limits assumed): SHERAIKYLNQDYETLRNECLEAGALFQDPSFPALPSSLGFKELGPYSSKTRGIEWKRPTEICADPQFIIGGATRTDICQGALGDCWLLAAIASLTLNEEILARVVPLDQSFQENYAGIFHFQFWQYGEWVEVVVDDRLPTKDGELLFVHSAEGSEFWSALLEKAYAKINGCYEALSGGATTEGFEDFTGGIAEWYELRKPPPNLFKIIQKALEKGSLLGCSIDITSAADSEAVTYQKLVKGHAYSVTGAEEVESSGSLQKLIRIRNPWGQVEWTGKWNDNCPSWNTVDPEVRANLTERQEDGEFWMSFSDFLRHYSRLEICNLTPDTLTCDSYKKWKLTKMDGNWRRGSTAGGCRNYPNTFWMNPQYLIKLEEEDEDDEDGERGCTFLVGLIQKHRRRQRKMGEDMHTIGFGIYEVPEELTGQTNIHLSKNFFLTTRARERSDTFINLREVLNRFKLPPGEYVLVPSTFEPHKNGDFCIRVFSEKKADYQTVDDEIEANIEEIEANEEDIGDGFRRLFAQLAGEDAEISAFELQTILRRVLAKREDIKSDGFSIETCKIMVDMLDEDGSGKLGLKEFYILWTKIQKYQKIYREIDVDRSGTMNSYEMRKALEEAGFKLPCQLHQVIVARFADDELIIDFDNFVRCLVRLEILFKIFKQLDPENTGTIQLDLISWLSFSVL
T1 sequence (Q64537 1-270 partner): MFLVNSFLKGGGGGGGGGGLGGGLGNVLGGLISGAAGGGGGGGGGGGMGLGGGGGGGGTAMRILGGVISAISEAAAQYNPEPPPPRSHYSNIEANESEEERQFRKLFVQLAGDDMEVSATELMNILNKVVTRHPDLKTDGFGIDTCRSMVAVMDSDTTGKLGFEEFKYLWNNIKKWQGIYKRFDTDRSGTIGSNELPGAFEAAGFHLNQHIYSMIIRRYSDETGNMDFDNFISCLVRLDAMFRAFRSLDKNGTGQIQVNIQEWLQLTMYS
Briefly: Measurement of inhibitory activity against calpain. Conditions: m-Calpain purified from rat brain. The data set is classed as biochemical. How it is done:
m-Calpain was purified from rat brain in accordance with the method described in Journal of Biological Chemistry, vol. 259, p. 3210, 1984, and its inhibitory activity was measured in accordance with the method described in Journal of Biological Chemistry, vol. 259, p. 12489, 1984.

A short description of the next data set: in vivo. The settings on record: both sexes, SD, rat, po.
Another data set has as its system female SD rats. Briefly: Myocardial infarct size-limiting effect in acute myocardial infarction model of rat. It is filed as in vivo. How it is done: An experiment was performed on female SD rats (14 weeks of age). The rats were lightly anesthetized with ether and a left thoracotomy wag performed. A permanent occlusion was placed around the proximal left coronary artery to produce acute myocardial infarction. Infarct size evaluated in each excised heart at 24 hours after the ligation.
The animals were divided into 2 groups at random, and 10 mg/kg of the compound of Inventive Example 29 (Compound No.. 426 in Table 2) suspended in water with Tween 80 was orally administered in a volume of 1 ml/kg to each animal of one of these groups (drug group) 1 hour before the coronary artery ligation, while the same volume of tap water was administered to the other group (control group). A rat with successful thoracotomy and which survived until 24 hours after the coronary ligation was used as the final evaluation subject. This study was continued until the final number of animals in each group reached 8.
Evaluation of the myocardial infarct size was carried out in the following manner. Each of the excised heart was cut into the slices at 2 mm thick from apex to base, and the sections were stained by incubating them in TTC solution (1%) at 37°C for 20 minutes to confirm necrotic region and non-necrotic region. Thereafter, sectional images of the sections were photographed to carry out image analysis on a computer. The infarction size was expressed as a % value obtained by dividing total area of necrotic area of all sliced sections by total left ventricle area (including septum part and excluding left ventricle cavity).

A short description of data set [1]: Formation of active metabolite in blood (dog sera, HPLC). Conditions: same procedure. It is filed as in vitro ADME.
The subject of another data set is male Wistar rats. In words: Action to improve passive avoidance response after a short period of fore-brain ischemia. It is filed as in vivo, rat. The settings on record: dose of 1 mg/kg, po, 30 minutes before 5 minutes of ischemia loading; retrieval test 48 hours after reperfusion.
Data set [2] in a line: Formation of active metabolite in blood (rat serum incubation, HPLC). The data set is classed as in vitro ADME. Conditions: final concentration 100 µM, 5 minutes of incubation at 37°C. How it is done: (2S,3S)-2-Acetoxy-3-((S)-4-methyl-2-phenylsulfonylaminovalerylamino)tetrahydrofuran obtained in Inventive Example 2 was dissolved in acetonitrile and added to rat serum to a final concentration of 100 µM. After 5 minutes of incubation at 37°C, this was mixed with acetonitrile and centrifuged and then the thus obtained supernatant fluid was checked by HPLC. It was found as the result that a 97% portion of the thus added (2S,3S)-2-acetoxy-3-((S)-4-methyl-2-phenylsulfonylaminovalerylamino)-tetrahydrofuran was hydrolyzed and converted into its active metabolite (3S)-3-((S)-4-methyl-2-phenylsulfonylaminovalerylamino)-2-tetrahydrofuranol (compound of Inventive Example 1).
HPLC was carried out under the following conditions. • Column: Nucleosil 100 5C18 4.6 x 250 mm (manufactured by Nargel) • Column temperature: 50°C • Mobile phase: CH3CN:H2O:PIC A Low UV (manufactured by Waters) 22:78:1 • Flow rate: 1 ml/min • Detection wave length: UV 222 nm

Data set [3] can be described thus: Formation of active metabolite in blood (human sera, HPLC). The data set is classed as in vitro ADME. Conditions: same procedure.

Excerpt for male Wistar rats: Also, animals treated only with cauterization of vertebral arteries were used as a pseudo-operation group. During ischemia and after reperfusion, body temperature of the animals was maintained by putting them on a heat insulating mat until righting reflex was recovered.
An apparatus composed of a light room (50 x 50 x 50 cm) equipped with a 100 W bulb and a dark room (20 x 14 x 20 cm) was used in the passive avoidance response test. Each of the rats which have been subjected to cauterization of both vertebral arteries 48 hours prior to the test was put into the light room and its latency to enter the dark room was measured to be used as the response latency at the time of acquisition trial. […] When each rat entered the dark room, the guillotine door was closed and the rat was immediately exposed to an electric shock (2.9 mA, 5 seconds) from the floor grid, thus completing the acquisition trial. Subsequently, 5 minutes of ischemia loading (occlusion of both common carotid arteries) was carried out under ether anesthesia, and retrieval test was carried out 48 hours after reperfusion. […] Presence or absence of the action to improve passive avoidance response was judged by comparing response latencies of the acquisition trial and retrieval test. Each drug to be tested was orally administered 30 minutes before the ischemia loading.

As for `CCCCCCCCCCCCCCCCS(=O)(=O)N[C@@H](CC(C)C)C(=O)N[C@H]1CCOC1O` (stereo partly drawn) [Inventive Example 13, (3S)-3-((S)-2-hexadecylsufonylamino-4-methylvalerylamino)-2-tetrahydrofuranol], the negative logarithm of the IC50 (pIC50) against m-Calpain is 6.38.

The compound `CCCCCCCCCCCCCCCC(=O)N[C@@H](CC(C)C)C(=O)N[C@H]1CCOC1O` (stereo partly drawn) [Inventive Example 9, (3S)-3-((S)-2-hexadecanoylamino-4-methylvalerylamino)-2-tetrahydrofuranol] showed a pIC50 against m-Calpain of 6.80.

On m-Calpain, `Cc1ccc(C(=O)N[C@@H](CC(C)C)C(=O)N[C@H]2CCOC2O)cc1` (stereo partly drawn) [Inventive Example 12, (3S)-3-{(S)-4-methyl-2-(4-methylbenzoylamino)valerylamino}-2-tetrahydrofuranol] showed a pIC50 of 6.48. Compared with the last compound, the pIC50 is 0.32 log units lower.

For `CC(=O)O[C@@H]1OCC[C@@H]1NC(=O)[C@H](CC(C)C)NS(=O)(=O)c1c(C)cc(C)cc1C` [Inventive Example 29, (2S,3S)-2-acetoxy-3-{(S)-4-methyl-2-(2,4,6-trimethylphenylsulfonylamino)valerylamino}tetrahydrofuran], the LD50 at 7 days in “in vivo” is above 2000 mg/kg. The compound also showed an infarct size in the data set on female SD rats (10 mg/kg orally 1 hour before coronary artery ligation, 24 hours after ligation, necrotic area / total left ventricle area, control 37.3 ± 3.5%) of 25.0 ± 1.7%. Further, the “infarct size reducing ratio” value in the data set on female SD rats (10 mg/kg orally, based on the control group) stood at 33.0%. Further, the “animals died during the thoracotomy” value in the data set on female SD rats (drug group 10 mg/kg orally, control group 2) was found to be 3. Further, the “animals died within 24 hours after the operation” value in the data set with female SD rats (drug group 10 mg/kg orally, control group 9) is reported as 10.

Compound `CC(C)C[C@H](NS(=O)(=O)c1ccc2ccccc2c1)C(=O)N[C@H]1CCOC1O` (stereo partly drawn) [Inventive Example 18, (3S)-3-{(S)-4-methyl-2-(2-naphthylsulfonylamino)valerylamino}-2-tetrahydrofuranol] gave a pIC50 on m-Calpain of 6.44.

For the compound `CCCCCCCCCCCCCCOC(=O)N[C@@H](CC(C)C)C(=O)N[C@H]1CCOC1O` (stereo partly drawn) [Inventive Example 3, (3S)-3-((S)-4-methyl-2-tetradecyloxycarbonylaminovalerylamino)-2-tetrahydrofuranol], the pIC50 on m-Calpain was 6.96.

`CC(=O)O[C@@H]1OCC[C@@H]1NC(=O)[C@H](CC(C)C)NS(=O)(=O)c1ccccc1` [Inventive Example 2, (2S,3S)-2-acetoxy-3-((S)-4-methyl-2-phenylsulfonylaminovalerylamino)tetrahydrofuran] gave an LD50 at 7 days in the data set “in vivo” above 2000 mg/kg. In addition, the “formation of active metabolite” value in data set [1] and in data set [3] was “the same active metabolite is formed” in each case. The “action to improve passive avoidance response” value with male Wistar rats is “showed the improving action”. Moreover, the “portion hydrolyzed and converted into its active metabolite” value in data set [2] stood at 97%.

As for `CCCCCCCCCCCCCCC(=O)N[C@@H](CC(C)C)C(=O)N[C@H]1CCOC1O` (stereo partly drawn) [Inventive Example 8, (3S)-3-((S)-4-methyl-2-pentadecanoylaminovalerylamino)-2-tetrahydrofuranol], the pIC50 at m-Calpain was 6.96.

On m-Calpain, `COc1ccc(S(=O)(=O)N[C@@H](CC(C)C)C(=O)N[C@H]2CCOC2O)cc1` (stereo partly drawn) [Inventive Example 17, (3S)-3-{(S)-2-(4-methoxyphenylsulfonylamino)-4-methylvalerylamino}-2-tetrahydrofuranol] had a pIC50 of 6.17.

Turning to `CC(=O)O[C@@H]1OCC[C@@H]1NC(=O)[C@H](CC(C)C)NC(=O)c1ccccc1F` [Inventive Example 24, (2S,3S)-2-acetoxy-3-{(S)-2-(2-fluorobenzoylamino)-4-methylvalerylamino}tetrahydrofuran], the “action to improve passive avoidance response” value in the data set on male Wistar rats was “showed the improving action”.

Compound `CC(C)C[C@H](NC(=O)c1ccccc1F)C(=O)N[C@H]1CCOC1O` (stereo partly drawn) [Inventive Example 10, (3S)-3-{(S)-2-(2-fluorobenzoylamino)-4-methylvalerylamino}-2-tetrahydrofuranol] had a pIC50 at m-Calpain of 6.77.

As to `CC(C)C[C@H](NS(=O)(=O)c1ccccc1)C(=O)N[C@H]1C(C)COC1O` (stereo partly drawn) [Inventive Example 19, (3S)-4-methyl-3-((S)-4-methyl-2-phenylsulfonylaminovalerylamino)-2-tetrahydrofuranol], on m-Calpain, the pIC50 was 5.60.
